Like-named read-outs stand apart in the source and are kept apart here.
Experiments:
female rats = experiment: antifatigue effect: rota-rod; assay type: in vivo, rat; conditions: Rattus norvegicus, ip, 0.25 h; for responders at 300 mg/kg: read-out: percentage of animals staying on the rota-rod more than 180 seconds, 300 mg/kg i.p.; for responders at 400 mg/kg: read-out: percentage of animals staying on the rota-rod more than 180 seconds, 400 mg/kg i.p.; for responders at 600 mg/kg: read-out: percentage of animals staying on the rota-rod more than 180 seconds, 600 mg/kg i.p.
Method: The antifatigue effect was also examined with the following results. The antifatigue effect was investigated by administering the compounds of the formula (I) according to the present application to female rats intraperitoneally in saline solution and saline solution alone to the controls by the same route. Every 15 minutes (sessions) after treatment, the animals were placed on a 6 cm diameter rod, rotating at 16 r.p.m. The percentage of the animals capable of staying on the rota-rod for a duration of more than 180 seconds was then recorded.

isolated rabbit hearts [1] = experiment: cardiokinetic effect on isolated heart (Langendorff): contractile force after anoxia, positive inotropic effect; conditions: 10 minutes from interruption of anoxic period
Method: (§1) The cardiokinetic effect on isolated heart was also investigated as follows. Rabbit hearts isolated by the Langendorff method were perfused with oxygenized ringer solution at 38.2° C. The isometric contractions, electrocardiogram and coronary flow were recorded using a "Battaglia-Rangoni" polygraph. By removing the oxygen from the perfusion fluid, metabolic damage was induced in the cardia muscle, up to an 80% reduction in the cardiac contractile force.
(§2) Under these conditions of prolonged anoxia the aerobic glycolysis of the myocardium is slowed down, accompanied by the storage of acid catabolites due to both the accumulation of pyruvic acid and its conversion to lactic acid which cannot be utilized because of the depression of pyridine enzymes, such as LDH (lactodehydrogenase). This has repercussions on the anaerobic glycolysis affecting an ever increasing number of enzymes, accompanied by a progressive and increasingly critical exhaustion of the myocardium. Thus a whole series of cardiac muscle fatigue levels occurs which can be observed by the behavior of the examined parameters, namely the contractile force, coronary flow, heart rate and cardiac rhythm. As soon as the contractile force was reduced by 80%, the perfusion fluid was once again oxygenized either without adding other compounds (controls) or with the addition of the compounds under examination.
Table 3 below gives the percentage values of the contractile force of the heart, showing a positive inotropic effect, calculated after 10 minutes from the interruption of the anoxic period (myocardial restoration).

isolated rat atrium = experiment: antiarrhythmic effect, isolated rat atrium method of M. Libonati and G. Segre; conditions: Rattus norvegicus
isolated rabbit hearts [2] = experiment: coronary vasodilator effect: coronary flow, isolated heart (Langendorff)
Method: as §1, §2

[3] = session 6 (every 15 minutes), * p < 0.05
[4] = read-out: Mean percent variation versus controls: excitability (-%)
[5] = read-out: Mean percent variation versus controls: frequency max (-%)
[6] = read-out: Mean percent variation versus controls: refractory period (+%)
[7] = read-out: Mean percent variation versus controls: rheobase (+%)

CCC(=O)OC(CC(=O)[O-])C[N+](C)(C)C (racemic) [propionyl-d,l-carnitine] was tested. Which responders at 300 mg/kg (female rats; session 1 (every 15 minutes)) did it give?
Its responders at 300 mg/kg is 0%.

And the responders at 300 mg/kg (female rats; session 2 (every 15 minutes))?
The responders at 300 mg/kg was 0%.

What about the responders at 300 mg/kg (female rats; session 3 (every 15 minutes)) of the same compound?
Its responders at 300 mg/kg is 0%.

What about the responders at 300 mg/kg (female rats; session 4 (every 15 minutes)) of the same compound?
Its responders at 300 mg/kg is 10%.

And the responders at 300 mg/kg (female rats; session 5 (every 15 minutes))?
The responders at 300 mg/kg was 20%.

What about the responders at 300 mg/kg (female rats; session 6 (every 15 minutes)) of the same compound?
The responders at 300 mg/kg was 40%.

And the responders at 400 mg/kg (female rats; session 1 (every 15 minutes))?
The responders at 400 mg/kg was 0%.

And the responders at 400 mg/kg (female rats; session 2 (every 15 minutes))?
Its responders at 400 mg/kg is 0%.

What about the responders at 400 mg/kg (female rats; session 3 (every 15 minutes)) of the same compound?
The responders at 400 mg/kg was 10%.

And the responders at 400 mg/kg (female rats; session 4 (every 15 minutes))?
Its responders at 400 mg/kg is 20%.

What about the responders at 400 mg/kg (female rats; session 5 (every 15 minutes)) of the same compound?
Its responders at 400 mg/kg is 20%.

And the responders at 400 mg/kg (female rats; [3])?
The responders at 400 mg/kg was 40%.

And the responders at 600 mg/kg (female rats; session 1 (every 15 minutes))?
Its responders at 600 mg/kg is 0%.

What about the responders at 600 mg/kg (female rats; session 2 (every 15 minutes)) of the same compound?
The responders at 600 mg/kg was 10%.

And the responders at 600 mg/kg (female rats; session 3 (every 15 minutes))?
The responders at 600 mg/kg was 20%.

What about the responders at 600 mg/kg (female rats; session 4 (every 15 minutes)) of the same compound?
Its responders at 600 mg/kg is 30%.

And the responders at 600 mg/kg (female rats; session 5 (every 15 minutes))?
The responders at 600 mg/kg was 40%.

What about the responders at 600 mg/kg (female rats; [3]) of the same compound?
Its responders at 600 mg/kg is 40%.

What about the “Contractile force, Mean ± S.E.” value (isolated rabbit hearts [1]; 1·10^-5 g/lt) of the same compound?
The value was 60.1 ± 3.12%.

And the “Contractile force, Mean ± S.E.” value (isolated rabbit hearts [1]; 1·10^-6 g/lt)?
Its value is 32.0 ± 5.06%.

And the “Contractile force, Mean ± S.E.” value (isolated rabbit hearts [1]; 5·10^-6 g/lt)?
Its value is 38.4 ± 4.86%.

What about the inhibition at 0.001 µg/mL (isolated rat atrium; [4]) of the same compound?
Its inhibition at 0.001 µg/mL is 2.24%.

And the inhibition at 0.01 µg/mL (isolated rat atrium; [4])?
Its inhibition at 0.01 µg/mL is 28.4%.

What about the inhibition at 0.1 µg/mL (isolated rat atrium; [4]) of the same compound?
Its inhibition at 0.1 µg/mL is 14.7%.

And the inhibition at 0.001 µg/mL (isolated rat atrium; [5])?
Its inhibition at 0.001 µg/mL is 10.7%.

What about the inhibition at 0.01 µg/mL (isolated rat atrium; [5]) of the same compound?
Its inhibition at 0.01 µg/mL is 11.4%.

What about the inhibition at 0.1 µg/mL (isolated rat atrium; [5]) of the same compound?
The inhibition at 0.1 µg/mL was 7.65%.

And the activation at 0.001 µg/mL (isolated rat atrium; [6])?
The activation at 0.001 µg/mL was 8.16%.

What about the activation at 0.01 µg/mL (isolated rat atrium; [6]) of the same compound?
The activation at 0.01 µg/mL was 14%.

What about the activation at 0.1 µg/mL (isolated rat atrium; [6]) of the same compound?
The activation at 0.1 µg/mL was 19.3%.

And the activation at 0.001 µg/mL (isolated rat atrium; [7])?
Its activation at 0.001 µg/mL is 3.57%.

And the activation at 0.01 µg/mL (isolated rat atrium; [7])?
The activation at 0.01 µg/mL was 51.3%.

And the activation at 0.1 µg/mL (isolated rat atrium; [7])?
Its activation at 0.1 µg/mL is 52.1%.

And the “Coronary flow, Mean ± S.E.” value (isolated rabbit hearts [2]; 1·10^-5 g/lt)?
The value was 89.27 ± 7.24%.

And the “Coronary flow, Mean ± S.E.” value (isolated rabbit hearts [2]; 1·10^-6 g/lt)?
The value was 80.61 ± 7.56%.

What about the “Coronary flow, Mean ± S.E.” value (isolated rabbit hearts [2]; 5·10^-6 g/lt) of the same compound?
The value was 78.76 ± 11.03%.
